In brackets after ≈: the same amount, converted by molar mass.
Experiments:
Type in all cases: functional
Staphylococcus aureus [1] = assay: Antibacterial activity against methicillin-resistant Staphylococcus aureus 6 assessed as inhibition of bacterial growth incubated for 18 to 24 hrs by microdilution method; details: time 18-24 hrs
Escherichia coli [2] = assay: Antibacterial activity against Escherichia coli AG102 assessed as inhibition of bacterial growth incubated for 18 to 24 hrs by microdilution method; details: time 18-24 hrs
Providencia stuartii [3] = assay: Antibacterial activity against Providencia stuartii NEA16 assessed as inhibition of bacterial growth incubated for 18 to 24 hrs by microdilution method; details: time 18-24 hrs
Staphylococcus aureus [4] = assay: Antibacterial activity against methicillin-resistant Staphylococcus aureus 4 assessed as inhibition of bacterial growth incubated for 18 to 24 hrs by microdilution method; details: time 18-24 hrs
Klebsiella pneumoniae [5] = assay: Antibacterial activity against Klebsiella pneumoniae ATCC 11296 assessed as inhibition of bacterial growth incubated for 18 to 24 hrs in presence of PAbetaN by microdilution method; details: time 18-24 hrs
CCRF-CEM [6] = assay: Cytotoxicity against drug sensitive human CCRF-CEM cells assessed as inhibition of cell growth at 10 uM incubated for 72 hrs by resazurin dye based assay relative to control
Pseudomonas aeruginosa [7] = assay: Antibacterial activity against Pseudomonas aeruginosa PA124 assessed as inhibition of bacterial growth incubated for 18 to 24 hrs by microdilution method; details: time 18-24 hrs
Providencia stuartii [8] = assay: Antibacterial activity against Providencia stuartii PS2636 assessed as inhibition of bacterial growth incubated for 18 to 24 hrs in the presence of PAbetaN by microdilution method; details: time 18-24 hrs
Klebsiella pneumoniae [9] = assay: Antibacterial activity against Klebsiella pneumoniae KP63 assessed as inhibition of bacterial growth incubated for 18 to 24 hrs in presence of PAbetaN by microdilution method; details: time 18-24 hrs
Providencia stuartii [10] = assay: Antibacterial activity against Providencia stuartii PS2636 assessed as inhibition of bacterial growth incubated for 18 to 24 hrs by microdilution method; details: time 18-24 hrs
Pseudomonas aeruginosa [11] = assay: Antibacterial activity against Pseudomonas aeruginosa PA124 assessed as inhibition of bacterial growth incubated for 18 to 24 hrs in the presence of PAbetaN by microdilution method; details: time 18-24 hrs
Providencia stuartii [12] = assay: Antibacterial activity against Providencia stuartii NEA16 assessed as inhibition of bacterial growth incubated for 18 to 24 hrs in the presence of PAbN by microdilution method; details: time 18-24 hrs
Klebsiella pneumoniae [13] = assay: Antibacterial activity against Klebsiella pneumoniae KP63 assessed as inhibition of bacterial growth incubated for 18 to 24 hrs by microdilution method; details: time 18-24 hrs
Staphylococcus aureus [14] = assay: Antibacterial activity against methicillin-resistant Staphylococcus aureus 4 assessed as inhibition of bacterial growth incubated for 18 to 24 hrs in the presence of PAbetaN by microdilution method; details: time 18-24 hrs
Klebsiella pneumoniae [15] = assay: Antibacterial activity against Klebsiella pneumoniae ATCC 11296 assessed as inhibition of bacterial growth incubated for 18 to 24 hrs by microdilution method; details: time 18-24 hrs
Escherichia coli [16] = assay: Antibacterial activity against Escherichia coli AG102 assessed as inhibition of bacterial growth incubated for 18 to 24 hrs in the presence of PAbetaN by microdilution method; details: time 18-24 hrs
Pseudomonas aeruginosa [17] = assay: Antibacterial activity against Pseudomonas aeruginosa PA01 assessed as inhibition of bacterial growth incubated for 18 to 24 hrs by microdilution method; details: time 18-24 hrs
Pseudomonas aeruginosa [18] = assay: Antibacterial activity against Pseudomonas aeruginosa PA01 assessed as inhibition of bacterial growth incubated for 18 to 24 hrs in the presence of PAbetaN by microdilution method; details: time 18-24 hrs
Escherichia coli [19] = assay: Antibacterial activity against Escherichia coli ATCC 10536 assessed as inhibition of bacterial growth incubated for 18 to 24 hrs by microdilution method; details: time 18-24 hrs
Escherichia coli [20] = assay: Antibacterial activity against Escherichia coli ATCC 10536 assessed as inhibition of bacterial growth incubated for 18 to 24 hrs in the presence of PAbetaN by microdilution method; details: time 18-24 hrs
Staphylococcus aureus [21] = assay: Antibacterial activity against methicillin-resistant Staphylococcus aureus 6 assessed as inhibition of bacterial growth incubated for 18 to 24 hrs in the presence of PAbetaN by microdilution method; details: time 18-24 hrs
Providencia stuartii [22] = assay: Antibacterial activity against Providencia stuartii ATCC29916 assessed as inhibition of bacterial growth incubated for 24 hrs by broth microdilution method
[23] = Resistance index, ratio of IC50 for multidrug resistant human CEM/ADR5000 cells overexpressing p-glycoprotein to IC50 for drug sensitive human CCRF-CEM cells
ADR5000 cell line = assay: Cytotoxicity against multidrug resistant human CEM/ADR5000 cells overexpressing p-glycoprotein assessed as inhibition of cell growth incubated for 72 hrs by resazurin dye based assay; details: ADR5000, 72 h
CCRF-CEM [24] = assay: Cytotoxicity against drug sensitive human CCRF-CEM cells assessed as inhibition of cell growth incubated for 72 hrs by resazurin dye based assay

Q: For COc1cc2occ(-c3ccc4c(c3)OCO4)c(=O)c2c(OC)c1CC=C(C)C, which MIC (Staphylococcus aureus [1]) is on record?
A: 32 µg/mL (≈ 81.1 µM)

Q: What about the MIC (Escherichia coli [2]) of the same compound?
A: 130 µg/mL (≈ 330 µM)

Q: And the MIC (Providencia stuartii [3])?
A: 130 µg/mL (≈ 330 µM)

Q: What about the MIC (Staphylococcus aureus [4]) of the same compound?
A: 130 µg/mL (≈ 330 µM)

Q: And the MIC (Klebsiella pneumoniae [5])?
A: 1 µg/mL

Q: And the inhibition at 10 µM (CCRF-CEM [6])?
A: < 50%

Q: What about the MIC (Pseudomonas aeruginosa [7]) of the same compound?
A: 130 µg/mL (≈ 330 µM)

Q: And the MIC (Providencia stuartii [8])?
A: 32 µg/mL

Q: What about the MIC (Klebsiella pneumoniae [9]) of the same compound?
A: 1 µg/mL

Q: And the MIC (Providencia stuartii [10])?
A: 130 µg/mL (≈ 330 µM)

Q: And the MIC (Pseudomonas aeruginosa [11])?
A: 4 µg/mL

Q: What about the MIC (Providencia stuartii [12]) of the same compound?
A: 8 µg/mL

Q: What about the MIC (Klebsiella pneumoniae [13]) of the same compound?
A: 16 µg/mL (≈ 40.6 µM)

Q: And the MIC (Staphylococcus aureus [14])?
A: 32 µg/mL

Q: What about the MIC (Klebsiella pneumoniae [15]) of the same compound?
A: 130 µg/mL (≈ 330 µM)

Q: And the MIC (Escherichia coli [16])?
A: 32 µg/mL

Q: What about the MIC (Pseudomonas aeruginosa [17]) of the same compound?
A: 64 µg/mL (≈ 162 µM)

Q: And the MIC (Pseudomonas aeruginosa [18])?
A: 16 µg/mL

Q: What about the MIC (Escherichia coli [19]) of the same compound?
A: 130 µg/mL (≈ 330 µM)

Q: What about the MIC (Escherichia coli [20]) of the same compound?
A: 64 µg/mL

Q: What about the MIC (Staphylococcus aureus [21]) of the same compound?
A: 2 µg/mL

Q: With COc1c(CC=C(C)C)c(O)cc2occ(-c3ccc4c(c3)OCO4)c(=O)c12 as the compound, how does the MIC (Providencia stuartii [22]) read?
A: 25 µg/mL (≈ 65.7 µM)

Q: For CC(=O)O[C@H]1C(=O)[C@@]2(C)[C@H]([C@H](OC(=O)c3ccccc3)[C@]3(O)C[C@H](OC(=O)[C@H](O)[C@@H](NC(=O)c4ccccc4)c4ccccc4)C(C)=C1C3(C)C)[C@]1(OC(C)=O)CO[C@@H]1C[C@@H]2O [PACLITAXEL], which “Ratio IC50” value [23] is on record?
A: 390

Q: With COc1cc2occ(-c3ccc(C#N)cc3)c(=O)c2c(OC)c1CC=C(C)C as the compound, how does the MIC (Staphylococcus aureus [1]) read?
A: 130 µg/mL (≈ 346 µM)

Q: What about the MIC (Escherichia coli [2]) of the same compound?
A: 130 µg/mL (≈ 346 µM)

Q: What about the IC50 (ADR5000 cell line) of the same compound?
A: 20 µM

Q: What about the MIC (Providencia stuartii [3]) of the same compound?
A: 16 µg/mL (≈ 42.6 µM)

Q: What about the MIC (Staphylococcus aureus [4]) of the same compound?
A: 64 µg/mL (≈ 170 µM)

Q: And the MIC (Klebsiella pneumoniae [5])?
A: 4 µg/mL

Q: And the MIC (Pseudomonas aeruginosa [7])?
A: > 130 µg/mL

Q: And the MIC (Providencia stuartii [8])?
A: 8 µg/mL

Q: What about the MIC (Klebsiella pneumoniae [9]) of the same compound?
A: 1 µg/mL

Q: What about the MIC (Providencia stuartii [10]) of the same compound?
A: 130 µg/mL (≈ 346 µM)

Q: What about the MIC (Pseudomonas aeruginosa [11]) of the same compound?
A: 32 µg/mL

Q: And the MIC (Providencia stuartii [12])?
A: 1 µg/mL

Q: What about the IC50 (CCRF-CEM [24]) of the same compound?
A: 20 µM

Q: And the MIC (Klebsiella pneumoniae [13])?
A: > 130 µg/mL

Q: What about the MIC (Staphylococcus aureus [14]) of the same compound?
A: 4 µg/mL

Q: And the MIC (Klebsiella pneumoniae [15])?
A: 130 µg/mL (≈ 346 µM)

Q: And the MIC (Escherichia coli [16])?
A: 130 µg/mL

Q: What about the MIC (Pseudomonas aeruginosa [17]) of the same compound?
A: 130 µg/mL (≈ 346 µM)

Q: What about the MIC (Pseudomonas aeruginosa [18]) of the same compound?
A: 32 µg/mL

Q: What about the MIC (Escherichia coli [19]) of the same compound?
A: 32 µg/mL (≈ 85.2 µM)

Q: What about the MIC (Escherichia coli [20]) of the same compound?
A: 2 µg/mL

Q: What about the MIC (Staphylococcus aureus [21]) of the same compound?
A: 16 µg/mL
